Measurements taken from article PMC6337475, “Optimization of Sequence, Display, and Mode of Operation of IgG-Binding Peptide Ligands to Develop Robust, High-Capacity Affinity Adsorbents That Afford High IgG Product Quality” (International Journal of Molecular Sciences, 2019).
Non-standard residues stand in square brackets, D forms with d. No end group written: not given here. Cit = NC(=O)NCCC[C@H](N)C(=O)O

Columns and labels:
[1] = test system: human polyclonal IgG; test: Batch adsorption isotherm (Langmuir fit); format: binding; details: peptide-TREN-WB resin, 0.1-12 mg/mL IgG in PBS pH 7.4, 2 h, room temperature, UV 280 nm
Procedure: The IgG-binding affinity of the ligand variants was initially measured via batch adsorption studies. Briefly, aliquots of peptide-TREN-WB resin were incubated with solutions of IgG in PBS in a range of concentration between 0.1 and 12 mg/mL; as the binding equilibrium was reached, the amount of IgG adsorbed on each resin aliquot was calculated based on the equilibrium concentration of IgG in solution, and the corresponding values were fitted to the Langmuir model: q=QmaxC/KD+C where in KD is the dissociation constant and Qmax the equilibrium binding capacity.
The adsorption of human polyclonal IgG by the HWRGWV-WB resins was measured at room temperature in a set of batch adsorption experiments. The resin was equilibrated with PBS, pH 7.4, and transferred into fritted tubes (50 µL of resin slurry per tube). Lyophilized IgG was dissolved in PBS, pH 7.4, at different concentrations ranging from 0.1 to 12 mg/mL. A volume of 1 mL of IgG solution was incubated with each of the resin aliquots for two hours, at room temperature, and under mild agitation. The supernatants were collected and quantified by UV-absorbance at 280 nm to determine the amount of IgG adsorbed by the resin and the corresponding equilibrium concentration of unbound IgG in solution, and the resulting data were fitted to a Langmuir isotherm.

[2] = test system: CHO host cell proteins (HCPs); test: Host cell protein clearance (HCP ELISA) in IgG1 purification from CHO supernatant; design: species or system Chinese Hamster Ovary (CHO); details: for HCP LRV: elution 0.1 M Na-acetate pH 4.5, TREN-WB adsorbent
Procedure: (§1) Further, the chromatographic fractions were analyzed using a HCP ELISA kit and a Quant-IT Picogreen dsDNA assay kit to determine the levels of host cell proteins (HCPs) and DNA, respectively.
(§2) In this work, we have investigated the effect of pH of the elution buffer on the performance of HWRGWV-TREN-WB resin with a therapeutic monoclonal IgG1. Specifically, 0.1 M acetate buffer was used as a milder elution buffer (pH 4–5), while 0.1 M glycine HCl buffer was used for low pH elution (pH 2.5). The performance of the different buffers was evaluated in terms of HCP LRV in the eluted fraction, whose values are reported in Figure 5. The HCP clearance decreases at lower elution pH, which is however needed to ensure sufficient IgG yield. At pH 5, where a HCP LRV of 1.18 is obtained, only 75% of the bound IgG is eluted. […] Therefore, acetate buffer pH 4.5 was selected as elution buffer, as it offers the best combination of yield and purity.
The majority of CHO HCPs are acidic in nature and have an overall negative charge at the physiological conditions (PBS pH 7.4). Their non-specific binding to the positively charged ligand (the net charge of HWRGWV at pH 7 is +1.1) is likely of electrostatic nature. In order to lower the non-specific capture of HCPs, pre-elution wash conditions were optimized by exploring different compositions and pH values of the washing buffer. Specifically, the following conditions were utilized, 0.2 M sodium phosphate pH 6, 0.2 M sodium phosphate pH 7, PBS pH 7.4, 1 M NaCl in PBS at pH 7.4, and 0.1 M Tris HCl pH 9.
The host cell protein contents of the chromatographic fractions were determined using HCP ELISA kits from Cygnus Technologies (Southport, NC, USA). The high sensitivity protocol described by the manufacturer was used in the analysis. Briefly, the anti-CHO-coated microtiter wells were filled with 100 μL of standards and samples, and incubated on a rotator at 200 rpm for 1 h at room temperature. The wells were then washed three times with 300 μL washing buffer, and 100 μL of HRP-labeled anti-CHO antibody was added to each of the wells. After rinsing the wells, 100 μL of 3,3′,5,5′ tetramethyl benzidine (TMB) substrate solution was added to each well for 30 min at room temperature. The reaction was terminated by adding 100 μL of 0.5 M sulphuric acid. The amount of hydrolyzed substrate was measured by μQuant Microplate reader (BioTek Inc., Winooski, VT, USA) at 450 nm. A 4-parameter logistic fit was used to calculate the HCP (ng/mL) content in the chromatographic fractions. The HCP values determined in terms of ng/mL were converted into ng/mg of MAb to account for the dilution of fractions. The log reduction value (LRV) was determined as the log10 of the ratio of HCP in the load to the HCP in the elution fractions.

[3] = test system: DNA; test: DNA clearance (Quant-IT PicoGreen) in IgG1 purification from CHO supernatant; design: species or system Chinese Hamster Ovary (CHO); details: washing buffer PBS, pH 7.4; elution 0.1 M Na-acetate pH 4.5; TREN-WB adsorbent
Procedure: as §1
The chromatographic fractions were first diafiltered against 10 mM Tris–HCl pH 7.5, using Amicon® centrifugal filters (3000 MWCO Millipore, Bedford, MA, USA). The DNA content in the fractions was determined by pico green assay using Quant-IT Picogreen dsDNA assay kit from Thermo Fisher Scientific (Philadelphia, PA, USA). Quantification was done as per the manufacturer’s protocol.

[4] = test system: polyclonal human IgG (monomer and aggregates); test: Aggregate removal from heat-treated polyclonal IgG, SEC; details: 1 mg/mL IgG incubated 60 °C 10 min; PBS wash; elution pH 4.5; SEC (TSKgel G3000SW)
Procedure: The ability of HWRGWVC-TREN-WB to remove aggregates was further tested by using a polyclonal IgG solution. The formation of aggregates was induced by incubating a 1 mg/mL IgG solution at 60 °C for 10 min. The IgG solution containing aggregates was loaded onto the HWRGWVC-TREN-WB resin, followed by washing with PBS and elution at pH 4.5.
Further, a feed sample containing monomeric and aggregated polyclonal IgG was produced by incubating a 1 mg/mL solution of human IgG at 60 °C for 10 min. The solution was loaded onto the HWRGWVC-TREN-WB resin, followed by washing with PBS and elution at pH 4.5. The collected fractions were analyzed by size exclusion chromatography (SEC) using a TSKgel G3000SW column to determine the ratio of monomeric vs. aggregated IgG in both flow-through and elution fractions.

[5] = test system: Fc region of IgG; details: cited from earlier work
From the text: Several chromatographic and non-chromatographic techniques have been proposed for the purification of Mabs, fc fusion proteins and bispecifics including efforts towards identifying alternatives to Protein A-based chromatography. While being regarded as the standard for antibody purification owing to their high affinity and selectivity, these ligands present limitations, including high cost and the potential release of immunogenic fragments. An additional issue with Protein A concerns the presence of antibody aggregates in eluted fraction and their poor selectivity ...

[6] = test system: IgG; details: preliminary studies; cited from earlier work
From the text: In this work the peptide and peptide variants have been conjugated to Workbeads base resin at varying ligand densities ...

[7] = test system: therapeutic monoclonal IgG1; test: Purification of monoclonal IgG1 from CHO cell culture supernatant: yield, loss and purity; details: SDS-PAGE
Procedure: To evaluate the effect of the spacer arm on the purity of the eluted product, the HWRGWV-WB adsorbents constructed with different spacer arms were utilized to purify a monoclonal IgG1 from a CHO cell culture supernatant. […] The collected fractions were analyzed by size exclusion chromatography to measure product yield (Table 2), and by SDS-PAGE to determine the overall product purity by densitometric analysis (Figure 4).
as §1, §2

Substance | Qmax (equilibrium binding capacity) [1] [mg·IgG/mL Adsorbent] | HCP LRV ([2]; washing buffer PBS, pH 7.4) | DNA LRV [3] | selective capture of monomeric IgG vs aggregates [4] | HCP LRV ([2]; washing buffer 0.1 M Tris HCl, pH 9) | HCP removal during washing ([2]; washing buffer 0.2 M sodium phosphate at either pH 6 or 7) | HCP LRV ([2]; washing buffer 1 M NaCl in PBS, pH 7.4) | binding region on IgG [5] | IgG binding capacity on agarose WorkBeads ACT [6] | loss of IgG in washing buffer ([7]; wash 0.1 M Tris HCl, pH 9) | loss of IgG in washing buffer ([7]; wash 1 M NaCl in PBS pH 7.4)
Ac-HWRGWV [N-terminally acetylated variant of HWRGWV, tested as TREN-WB resin] | 72 | 1.38 | ~4 | – | – | – | – | – | – | – | –
HWRGWV [tested as TREN-WB resin, coupled as HWRGWVC] | 85 | 1.04 | ~4 | bind only monomeric IgG | 1.39 | did not afford any HCP removal during washing | 1.22 | binds the Fc region of IgG | higher IgG binding capacity as compared to polymethcarylate base resin | – | –
HWRGWVC [peptide HWRGWV with C-terminal cysteine, conjugated through its thiol group to iodoacetyl-WB resin] | – | – | – | – | – | – | – | – | – | not observed | minor loss of IgG in the washing buffer
HW[Cit]GWV | 49 | 1.58 | ~4 | – | – | – | – | – | – | – | –
